In patent US11173145B2, “Compounds useful as inhibitors of indoleamine 2,3-dioxygenase and/or tryptophan dioxygenase” (Board of Regents, The University of Texas System, priority 2017, dated 2021):

Legend:
IDO1 = target: T1, IDO1 (Homo sapiens, UniProt P14902); assay: IDO1 cell-based assay (HeLa cells, IFNgamma-induced, N-formylkynurenine/L-tryptophan by RFMS); conditions: 10 ng/mL IFNgamma, 24 hours
T1 construct: endogenous in cells; host or cells: HeLa cells (ATCC), IFNgamma-induced
In short: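 HeLa cells stimulated with 10 ng/mL IFNgamma and exposed to compound (0.5% DMSO final) for 24 h at 37 °C. Conditioned media deproteinized, then N-formylkynurenine and L-tryptophan quantified by RapidFire MS with deuterated tryptophan internal standard; IC50 by curve fitting. Viability checked by CellTiter-Glo.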

mouse IDO1 = target: T2, mouse IDO1 (Mus musculus, UniProt P28776); assay: Mouse IDO1 cell-based assay (PANC02 cells, mouse IFNgamma-induced, N-formylkynurenine/L-tryptophan by RFMS); conditions: 30 ng/mL mouse IFNgamma, 48 hours
T2 construct: The murine PANC02 pancreatic ductal adenocarcinoma cell line was routinely maintained in DMEM media; endogenous in cells; host or cells: PANC02 murine pancreatic ductal adenocarcinoma cells, induced with mouse IFNgamma
Method: The murine PANC02 pancreatic ductal adenocarcinoma cell line was routinely maintained in DMEM media containing 10% FBS. Cells (3,000/well) were seeded onto a 384 well plate in 50 μl of media and incubated at 37° C., 5% CO2 overnight. Cell media was aspirated, fresh media containing 30 ng/mL mouse IFNgamma (Gibco Life Technologies, cat #PMC4031) was added, and cells were incubated in absence or presence of various concentrations of compounds (final 0.5% DMSO) for 48 hours at 37° C., 5% CO2. Aliquots of the cell conditioned media was removed from the cell plate, and mixed with equal volume of 200 mM ZnSO4 to precipitate media containing protein. Two volumes of acetonitrile were added by mixing, and samples were then centrifuged at 2250G for 20 minutes at 4° C. Aliquots of the supernatant were diluted 1:10 in 0.1% formic acid containing 3 μM of deuterated Tryptophan as an internal standard.
Samples were analyzed via RFMS to quantify N-Formyl Kynurenine (AUC) and L-tryptophan (AUC). A C18 cartridge was used with mobile phases of 0.1% Formic Acid and 80% ACN/0.1% Formic Acid under isocratic conditions. Dose-response curves were analyzed using IC50 regression curve fitting (GeneData Screener). Curves were plotted as percent of control and normalized by high controls without inhibitor (100%), and low controls (0%) containing 1 μM of epacadostat. Cell viability was also assessed using the Cell Titer Glo Kit (Promega) following manufacture recommendation.

T2 sequence (P28776 whole entry): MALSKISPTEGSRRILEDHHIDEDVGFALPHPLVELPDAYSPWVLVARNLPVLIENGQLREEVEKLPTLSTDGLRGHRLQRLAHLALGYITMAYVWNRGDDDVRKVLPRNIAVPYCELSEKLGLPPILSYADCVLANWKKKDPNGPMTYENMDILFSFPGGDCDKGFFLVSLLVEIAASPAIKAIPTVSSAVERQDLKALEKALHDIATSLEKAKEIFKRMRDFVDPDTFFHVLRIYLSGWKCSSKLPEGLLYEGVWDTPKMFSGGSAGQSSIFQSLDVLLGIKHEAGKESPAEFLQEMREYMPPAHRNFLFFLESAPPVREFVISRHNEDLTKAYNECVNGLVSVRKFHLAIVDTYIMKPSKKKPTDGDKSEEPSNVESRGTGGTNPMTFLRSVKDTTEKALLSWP
T1 sequence (P14902 whole entry): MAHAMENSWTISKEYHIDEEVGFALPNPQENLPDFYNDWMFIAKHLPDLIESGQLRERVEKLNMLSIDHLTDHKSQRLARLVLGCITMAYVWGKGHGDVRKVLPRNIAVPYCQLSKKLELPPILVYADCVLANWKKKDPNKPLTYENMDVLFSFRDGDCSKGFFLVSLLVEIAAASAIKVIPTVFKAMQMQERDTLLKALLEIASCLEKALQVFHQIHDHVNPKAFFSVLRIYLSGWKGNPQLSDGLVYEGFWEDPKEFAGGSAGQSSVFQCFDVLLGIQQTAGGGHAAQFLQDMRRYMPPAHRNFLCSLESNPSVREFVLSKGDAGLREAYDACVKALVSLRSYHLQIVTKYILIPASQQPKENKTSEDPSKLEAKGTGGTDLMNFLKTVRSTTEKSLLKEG

`CCC(NC(=O)c1ccc(Cl)cc1)[C@H]1[C@@H]2C[C@H](n3nncc3C3CC3)C[C@@H]21` (stereo partly drawn) [Compound 191, 4-chloro-N-(1-((1R,3r,5S,6r)-3-(5-cyclopropyl-1H-1,2,3-triazol-1-yl)bicyclo[3.1.0]hexan-6-yl)propyl)benzamide] was tested, and the IC50 (IDO1) was 0.2 to 2 µM and the IC50 (mouse IDO1) was 0.5 to 2 µM.
Molecule `CCC(NC(=O)c1ccc(Cl)cc1)[C@H]1[C@@H]2C[C@H](NC(=O)c3nccc(C(F)(F)F)c3Cl)C[C@@H]21` (stereo partly drawn) [Compound 222, 3-chloro-N-((1R,3r,5S,6r)-6-(1-(4-chlorobenzamido)propyl)bicyclo[3.1.0]hexan-3-yl)-4-(trifluoromethyl)picolinamide] has an IC50 (IDO1) of 0.2 to 2 µM and an IC50 (mouse IDO1) of 0.5 to 2 µM.
Work on `CCC(NC(=O)c1ccc(Cl)cc1)[C@H]1[C@@H]2C[C@@H](NC(=O)c3ncc(F)cc3F)C[C@@H]21` (stereo partly drawn) [Compound 171, N-((1R,3s,5S,6r)-6-(1-(4-chlorobenzamido)propyl)bicyclo[3.1.0]hexan-3-yl)-3,5-difluoropicolinamide] yielded an IC50 (IDO1) of under 0.2 µM and an IC50 (mouse IDO1) of 0.5 to 2 µM.
Work on `CCC(NC(=O)c1ccc(Cl)cc1)[C@H]1[C@@H]2C[C@@H](n3nc4ccc(Br)cc4n3)C[C@@H]21` (stereo partly drawn) [Compound 179, N-(1-((1R,3s,5S,6r)-3-(5-bromo-2H-benzo[d][1,2,3]triazol-2-yl)bicyclo[3.1.0]hexan-6-yl)propyl)-4-chlorobenzamide] yielded an IC50 (IDO1) of under 0.2 µM and an IC50 (mouse IDO1) of 2 to 5 µM.
With `O=C(NCc1ccc(Cl)cc1)[C@H]1[C@@H]2CN(c3ncnc4ccc(F)cc34)C[C@@H]21` [Compound 251, (1R,5S,6r)-N-(4-chlorobenzyl)-3-(6-fluoroquinazolin-4-yl)-3-azabicyclo[3.1.0]hexane-6-carboxamide] the IC50 (IDO1) was over 5 µM and the IC50 (mouse IDO1) was over 5 µM.
`CC[C@H](NC(=O)c1ccc(Cl)cc1)[C@H]1[C@@H]2C[C@@H](n3cnc4ccc(F)cc43)C[C@@H]21` [Compound 248, 4-chloro-N—((S)-1-((1R,3S,5S,6r)-3-(6-fluoro-1H-benzo[d]imidazol-1-yl)bicyclo[3.1.0]hexan-6-yl)propyl)benzamide] gave an IC50 (mouse IDO1) of under 0.5 µM.
Molecule `CCC(NC(=O)c1ccc(Cl)cc1)[C@H]1[C@@H]2C[C@@H](n3cnc4ccc(F)cc43)C[C@@H]21` (stereo partly drawn) [Compound 125] has an IC50 (mouse IDO1) of under 0.5 µM.
For `CC[C@@H](NC(=O)c1ccc(Cl)cc1)[C@H]1[C@@H]2C[C@@H](n3cnc4ccc(F)cc43)C[C@@H]21` [Compound 247, 4-chloro-N—((R)-1-((1R,3S,5S, 6r)-3-(6-fluoro-1H-benzo[d]imidazol-1-yl)bicyclo[3.1.0]hexan-6-yl)propyl)benzamide], the IC50 (mouse IDO1) was under 0.5 µM.
In the case of `C[C@@H](NC(=O)c1ccc(C#N)cc1)[C@H]1[C@@H]2C[C@@H](c3ccnc4ccc(F)cc34)C[C@@H]21` [Compound 278, 4-cyano-N-((R)-1-((1R,3S,5S,6r)-3-(6-fluoroquinolin-4-yl)bicyclo[3.1.0]hexan-6-yl)ethyl)benzamide], the IC50 (IDO1) is reported as under 0.2 µM.
With `COCC(NC(=O)c1ccc(Cl)cc1)[C@H]1[C@@H]2C[C@@H](n3cc(C4CC4)nn3)C[C@@H]21` (stereo partly drawn) [Compound 173, 4-chloro-N-(1-((1R,3s,5S,6r)-3-(4-cyclopropyl-1H-1,2,3-triazol-1-yl)bicyclo[3.1.0]hexan-6-yl)-2-methoxyethyl)benzamide] the IC50 (IDO1) was under 0.2 µM.
`CCC(NC(=O)c1ccc(Cl)cc1)[C@H]1[C@@H]2C[C@@H](N3C(=O)Cc4cc(F)ccc43)C[C@@H]21` (stereo partly drawn) [Compound 121, 4-chloro-N-(1-((1R,3s,5S,6r)-3-(5-fluoro-2-oxoindolin-1-yl)bicyclo[3.1.0]hexan-6-yl)propyl)benzamide] gave an IC50 (IDO1) of under 0.2 µM.
For `O=C(NCc1ccc(Cl)cc1)C1[C@H]2CC(Oc3cc(C(F)(F)F)nc4ccc(F)cc34)C[C@@H]12` (stereo partly drawn) [Compound 17, (1R,5S)-N-(4-chlorobenzyl)-3-((6-fluoro-2-(trifluoromethyl)quinolin-4-yl)oxy)bicyclo[3.1.0]hexane-6-carboxamide], the IC50 (IDO1) was over 5 µM.
Molecule `CC(NC(=O)c1ccc(C#N)cc1)C1[C@H]2CC(O)C[C@@H]12` (stereo partly drawn) [Compound 105, 4-cyano-N-(1-((1R,3r,5S,6r)-3-hydroxybicyclo[3.1.0]hexan-6-yl)ethyl)benzamide] has an IC50 (IDO1) of over 5 µM.
`CC[C@@H](NC(=O)c1ccc(Cl)cc1)[C@H]1[C@@H]2C[C@H](c3ccnc4ccc(F)cc34)C[C@@H]21` [Compound 286, 4-chloro-N-((R)-1-((1R,3R,5S,6r)-3-(6-fluoroquinolin-4-yl)bicyclo[3.1.0]hexan-6-yl)propyl)benzamide] was tested, and the IC50 (IDO1) was under 0.2 µM.
For `CCC(NC(=O)c1ccc(Cl)cc1)[C@H]1[C@@H]2C[C@@H](Oc3cnc4ccccc4c3)C[C@@H]21` (stereo partly drawn) [Compound 49, 4-chloro-N-(1-((1R,3s,5S,6r)-3-(quinolin-3-yloxy)bicyclo[3.1.0]hexan-6-yl)propyl)benzamide], the IC50 (IDO1) was under 0.2 µM.
`O=C(NC[C@@H]1[C@H]2CN(c3ncnc4ccc(F)cc34)C[C@@H]12)c1ccc(Cl)cc1` [Compound 280, 4-chloro-N-(((1R,5S,6s)-3-(6-fluoroquinazolin-4-yl)-3-azabicyclo[3.1.0]hexan-6-yl)methyl)benzamide] gave an IC50 (IDO1) of 0.2 to 2 µM.
`CCC(NC(=O)c1ccc(Cl)cc1)[C@H]1[C@@H]2C[C@@H](Oc3ncncc3F)C[C@@H]21` (stereo partly drawn) [Compound 54, 4-chloro-N-(1-((1R,3s,5S,6r)-3-((5-fluoropyrimidin-4-yl)oxy)bicyclo[3.1.0]hexan-6-yl)propyl)benzamide] was tested, and the IC50 (IDO1) was under 0.2 µM.
`C=Cc1cnn([C@@H]2C[C@@H]3[C@H](C2)[C@H]3[C@@H](CC)NC(=O)c2ccc(Cl)cc2)c1` [Compound 305, 4-chloro-N-((R)-1-((1R,3S,5S,6r)-3-(4-vinyl-1H-pyrazol-1-yl)bicyclo[3.1.0]hexan-6-yl)propyl)benzamide] was tested, and the IC50 (IDO1) was under 0.2 µM.
`CCC(NC(=O)c1ccc(Cl)cc1)C1[C@H]2CC(Oc3cnnc4ccccc34)C[C@@H]12` (stereo partly drawn) [Compound 46, 4-chloro-N-(1-((1R,3s,5S,6r)-3-(cinnolin-4-yloxy)bicyclo[3.1.0]hexan-6-yl)propyl)benzamide] showed an IC50 (IDO1) of under 0.2 µM.
In the case of `CCC(NC(=O)c1ccc(Cl)cc1)[C@H]1[C@@H]2C[C@@H](n3ncc4ccncc43)C[C@@H]21` (stereo partly drawn) [Compound 174, N-(1-((1R,3s,5S,6r)-3-(1H-pyrazolo[3,4-c]pyridin-1-yl)bicyclo[3.1.0]hexan-6-yl)propyl)-4-chlorobenzamide], the IC50 (IDO1) is reported as under 0.2 µM.
`CCC(NC(=O)c1ccc(Cl)cc1)[C@H]1[C@@H]2C[C@@H](n3cnc4ccncc43)C[C@@H]21` (stereo partly drawn) [Compound 197, N-(1-((1R,3s,5S,6r)-3-(3H-imidazo[4,5-c]pyridin-3-yl)bicyclo[3.1.0]hexan-6-yl)propyl)-4-chlorobenzamide] was tested, and the IC50 (mouse IDO1) was over 5 µM.
For `CC[C@@H](NC(=O)c1ccc(Cl)cc1)[C@H]1[C@@H]2C[C@@H](n3ccc(C4CC4)n3)C[C@@H]21` [Compound 343, 4-chloro-N-((R)-1-((1R,3S,5S,6r)-3-(3-cyclopropyl-1H-pyrazol-1-yl)bicyclo[3.1.0]hexan-6-yl)propyl)benzamide], the IC50 (IDO1) was under 0.2 µM.
With `CC[C@@H](NC(=O)N1CCC(F)(F)CC1)[C@H]1[C@@H]2C[C@@H](n3cnc4cc(F)c(F)cc43)C[C@@H]21` [Compound 355, N-((R)-1-((1R,3S,5S,6r)-3-(5,6-difluoro-1H-benzo[d]imidazol-1-yl)bicyclo[3.1.0]hexan-6-yl)propyl)-4,4-difluoropiperidine-1-carboxamide] the IC50 (IDO1) was under 0.2 µM.
`CCC(NC(=O)c1ccc(OC)nc1)[C@H]1[C@@H]2C[C@@H](n3cnc4ccc(F)cc4c3=O)C[C@@H]21` (stereo partly drawn) [Compound 74, N-(1-((1R,3s,5S,6r)-3-(6-fluoro-4-oxoquinazolin-3(4H)-yl)bicyclo[3.1.0]hexan-6-yl)propyl)-6-methoxynicotinamide] was tested, and the IC50 (IDO1) was 0.2 to 2 µM.
`CCC(NC(=O)c1ccc(Cl)cc1)[C@H]1[C@@H]2C[C@@H](Oc3ncccc3F)C[C@@H]21` (stereo partly drawn) [Compound 39, 4-chloro-N-(1-((1R,3s,5S,6r)-3-((3-fluoropyridin-2-yl)oxy)bicyclo[3.1.0]hexan-6-yl)propyl)benzamide] was tested, and the IC50 (IDO1) was under 0.2 µM.
`CCC(NC(=O)c1ccc(Cl)cc1)[C@H]1[C@@H]2C[C@@H](Oc3ccnc(C)c3)C[C@@H]21` (stereo partly drawn) [Compound 15, 4-chloro-N-(1-((1R,3s,5S,6r)-3-((2-methylpyridin-4-yl)oxy)bicyclo[3.1.0]hexan-6-yl)propyl)benzamide] gave an IC50 (IDO1) of under 0.2 µM.
In the case of `O=C(NC(CCO)[C@H]1[C@@H]2C[C@@H](n3ncc(=O)c4ccccc43)C[C@@H]21)c1ccc(Cl)cc1` (stereo partly drawn) [Compound 140, 4-chloro-N-(3-hydroxy-1-((1R,3s, 5S, 6r)-3-(4-oxocinnolin-1(4H)-yl)bicyclo[3.1.0]hexan-6-yl)propyl)benzamide], the IC50 (IDO1) is reported as under 0.2 µM.
`CCC(NC(=O)c1ccc(Cl)cc1)[C@H]1[C@@H]2C[C@@H](Oc3cc(C)nc4ccc(F)cc34)C[C@@H]21` (stereo partly drawn) [Compound 20, 4-chloro-N-(1-((1R,3s,5S,6r)-3-((6-fluoro-2-methylquinolin-4-yl)oxy)bicyclo[3.1.0]hexan-6-yl)propyl)benzamide] showed an IC50 (IDO1) of under 0.2 µM.
